Like-named read-outs stand apart in the source and are kept apart here.
Assays:
Assay type in all cases: cell-based
HTT mRNA = experiment: RT-qPCR splicing assay, HTT canonical (CJ) and alternative (AJ) junction mRNA; settings: Homo sapiens; for IC50: read-out: HTT CJ IC50; for AC50: read-out: HTT AJ AC50
Procedure: (§1) Compounds described herein were used to modulate RNA transcript abundance in cells. The expression of a target mRNA was measured by detecting the formation of an exon-exon junction in the canonical transcript (CJ). A compound mediated exon-inclusion event was detected by observing an increase in formation of a new junction with an alternative exon (AJ). Real-time qPCR assays were used to detect these splicing switches and interrogate the potency of various compounds towards different target genes. A high-throughput real time quantitative PCR (RT-qPCR) assay was developed to measure these two isoforms of the mRNA (CJ and AJ) for exemplary genes, such as HTT, SMN2, and MYB, together with a control housekeeping gene, GAPDH or GUSB or PPIA, used for normalization. Briefly, the A673 or K562 cell line was treated with various compounds described herein (e.g., compounds of Formula (I)). After treatment, the levels of the HTT, MYB, or SMN2 mRNA targets were determined from each sample of cell lysate by cDNA synthesis followed by qPCR.
(§2) • Cells-to-CT 1-step kit: ThermoFisher A25602, Cells-to-CT lysis reagent: ThermoFisher 4391851C, TaqMan™ Fast Virus 1-Step Master Mix: ThermoFisher 4444436 • GAPDH: VIC-PL, ThermoFisher 4326317E (Assay: Hs99999905_m1)—used for K562/suspension cell lines • GUSB: VIC-PL, ThermoFisher 4326320E (Assay: Hs99999908_m1)—used for K562/suspension cell lines • PPIA: VIC-PL, ThermoFisher 4326316E (Assay: Hs99999904_m1)—used for A673/adherent cell lines
(§3) The A673 cell line was cultured in DMEM with 10% FBS. Cells were diluted with full growth media and plated in a 96-well plate (15,000 cells in 100 ul media per well). The plate was incubated at 37° C. with 5% CO2 for 24 hours to allow cells to adhere. An 11-point 3-fold serial dilution of the compounds was made in DMSO then diluted in media in an intermediate plate. Compounds were transferred from the intermediate plate to the cell plate with the top dose at a final concentration of 10 uM in the well. Final DMSO concentration was kept at or below 0.25%. The cell plate was returned to the incubator at 37° C. with 5% CO2 for an additional 24 hours.
(§4) The K562 cell line was cultured in IMDM with 10% FBS. For K562, cells were diluted with full growth media and plated in either a 96-well plate (50,000 cells in 50 uL media per well) or a 384-well plate (8,000-40,000 cells in 45 uL media per well). An 11-point 3-fold serial dilution of the compounds were made in DMSO then diluted in media in an intermediate plate. Compound was transferred from the intermediate plate to the cell plate with the top dose at a final concentration of 10 uM in the well. Final DMSO concentration was kept at or below 0.25%. Final volume was 100 uL for 96-well plate and 50 uL for 384-well plate. The cell plate was then placed in an incubator at 37° C. with 5% CO2 for 24 hours.
(§5) The cells were then gently washed with 50 uL-100 uL cold PBS before proceeding to addition of lysis buffer. 30 uL-50 μL of room temperature lysis buffer with DNAse I (and optionally RNAsin) was added to each well. Cells were shaken/mixed thoroughly at room temperature for 5-10 minutes for lysis to take place and then 3 uL-5 μL of room temperature stop solution was added and wells were shaken/mixed again. After 2-5 minutes, the cell lysate plate was transferred to ice for RT-qPCR reaction setup. The lysates could also be frozen at −80° C. for later use.
(§6) In some cases, a direct lysis buffer was used. An appropriate volume of 3× lysis buffer (10 mM Tris, 150 mM NaCl, 1.5%-2.5% Igepal and 0.1-1 U/uL RNAsin, pH 7.4) was directly added to either K562 or A673 cells in media and mixed by pipetting 3 times. The plates were then incubated at room temperature with shaking/rocking for 20-50 minutes to allow for lysis to take place. After this time, the cell lysate plate was transferred to ice to set up for the RT-qPCR reactions. The lysates could also be frozen at −80° C. for later use. […]

SMN2 mRNA = experiment: RT-qPCR splicing assay, gene panel, SMN2 canonical junction (CJ) mRNA; settings: Homo sapiens, read-out: SMN2 CJ IC50
Procedure: as §1, §3, §4, §5
In some cases, a direct lysis buffer was used. An appropriate volume of 3× lysis buffer (10 mM Tris, 150 mM NaCl, 1.5%-2.5% Igepal and 0.1-1 U/uL RNAsin, pH 7.4) was directly added to either K562 or A673 cells in media and mixed by pipetting 3 times. The plates were then incubated at room temperature with shaking/rocking for 20-50 minutes to allow for lysis to take place. After this time, the cell lysate plate was transferred to ice to set up for the RT-qPCR reactions. The lysates could also be frozen at −80° C. for later use.
To set up 10 uL RT-qPCR reactions, cell lysates were transferred to 384-well qPCR plates containing the master mix according to the table below. The plates were sealed, gently vortexed, and spun down before the run. The volumes were adjusted accordingly in some instances where the reaction was carried in 20 μL. The table below summarizes the components of the RT-qPCR reactions:
The RT-qPCR reaction was performed using a QuantStudio (ThermoFisher) under the following fast cycling conditions. […]

K562 cells = experiment: Cell Titer Glo 2.0 cell viability assay; settings: Homo sapiens, 500 cells/well, 72 hours
Procedure: Compounds described herein were screened for toxicity in K562 (human chronic myelogenous leukemia) and SH-SY5Y (human neuroblastoma) cells using a Cell Titer Glo 2.0 assay. • Promega CellTiter-Glo® 2.0 Cell Viability Assay (cat #G9241) • Corning 384-well TC-treated microplates (cat #3570) Cells were plated at 500 cells/well (K562 cells) in 45 μL of IMDM supplemented with 10% FBS in a 384-well opaque plate. Wells containing only medium were used as a blank control. Test compounds (e.g., compounds of Formula (I), (II), or (III)) were first serially diluted in DMSO then diluted 1:100 with IMDM+10% FBS. The final concentration of DMSO was 0.1% in each well. The cells were incubated for 72 hours at 37° C. and 5% CO2 before assaying with Cell Titer Glo 2.0 reagent.

MYB mRNA = experiment: RT-qPCR splicing assay, MYB canonical (CJ) and alternative (AJ) junction mRNA; settings: Homo sapiens; for IC50: read-out: MYB CJ IC50; for AC50: read-out: MYB AJ AC50
Procedure: as §1, §2, §3, §4, §5, §6

[1] = decrease in CJ mRNA levels, larger panel of genes, Table 3
[2] = decrease in canonical junction mRNA, A673 or K562 cells, 24 hours treatment, Table 2
[3] = increase in alternative junction mRNA, A673 or K562 cells, 24 hours treatment, Table 2

IC50 (HTT mRNA; [1])	IC50 (HTT mRNA; [2])	IC50 (SMN2 mRNA; [1])	GI50 (K562 cells)	IC50 (MYB mRNA; [1])	IC50 (MYB mRNA; [2])	Structure (SMILES)	AC50 (HTT mRNA; [3])	AC50 (MYB mRNA; [3])	AC50 (HTT mRNA; 24 h)	IC50 (HTT mRNA; 24 h)	IC50 (HTT mRNA)	IC50 (SMN2 mRNA)	AC50 (MYB mRNA; 24 h)	IC50 (MYB mRNA; 24 h)	IC50 (MYB mRNA)
100 to 1000 nM	100 to 1000 nM	100 to 1000 nM	1000 to 10000 nM	1000 to 10000 nM	1000 to 10000 nM	Cn1cc2cc(-c3cc(F)c4nn(C5CCNCC5)nc4c3)cc(F)c2n1 [Compound 103, 4-fluoro-6-(7-fluoro-2-methyl-indazol-5-yl)-2-(4-piperidyl) benzotriazole]	100 to 1000 nM	1000 to 10000 nM							
100 to 1000 nM	100 to 1000 nM	< 100 nM	1000 to 10000 nM	1000 to 10000 nM	1000 to 10000 nM	CCN1CCC(n2cc3cc(-c4cc(F)c5nn(C)cc5c4)cc(F)c3n2)CC1 [Compound 104, 2-(1-ethyl-4-piperidyl)-7-fluoro-5-(7-fluoro-2-methyl-indazol-5-yl)indazole]	100 to 1000 nM	1000 to 10000 nM							
100 to 1000 nM	100 to 1000 nM	< 100 nM	100 to 1000 nM	100 to 1000 nM	100 to 1000 nM	Cn1cc2cc(-c3ccc4nn(C5CCNCC5)cc4c3)cc(F)c2n1 [Compound 105, 7-fluoro-2-methyl-5-[2-(4-piperidyl)indazol-5-yl]indazole]	100 to 1000 nM	1000 to 10000 nM							
100 to 1000 nM	100 to 1000 nM	< 100 nM	100 to 1000 nM	100 to 1000 nM	100 to 1000 nM	Cn1cc2cc(-c3ccc4nn(C5CCNCC5)cc4n3)c(O)c(F)c2n1 [Compound 107, 7-fluoro-2-methyl-5-[2-(4-piperidyl)pyrazolo [4,3-b]pyridin-5-yl]indazol-6-ol]	100 to 1000 nM	100 to 1000 nM							
100 to 1000 nM	100 to 1000 nM	100 to 1000 nM	100 to 1000 nM	100 to 1000 nM	100 to 1000 nM	Cn1cc2cc(-c3cc(F)c4nn(C5CCNC6(CC6)C5)cc4c3)cc(F)c2n1 (centres unmarked) [Compound 108, 2-(4-azaspiro[2.5]octan-7-yl)-7-fluoro-5-(7-fluoro-2-methyl-indazol-5-yl)indazole]	100 to 1000 nM	1000 to 10000 nM							
< 100 nM	< 100 nM	< 100 nM	100 to 1000 nM	100 to 1000 nM	100 to 1000 nM	Cc1c(O)c(-c2ccc3nn(C4CCNCC4)cc3n2)cc2cn(C)nc12 [Compound 109, 2,7-dimethyl-5-[2-(4-piperidyl)pyrazolo[4,3-b]pyridin-5-yl]indazol-6-ol]	100 to 1000 nM	100 to 1000 nM							
100 to 1000 nM	100 to 1000 nM	< 100 nM	1000 to 10000 nM	100 to 1000 nM	100 to 1000 nM	Cn1cc2cc(-c3ccc4nn(C5CCNCC5)cc4n3)c(O)cc2n1 [Compound 110, 2-methyl-5-[2-(4-piperidyl)pyrazolo[4,3-b]pyridin-5-yl]indazol-6-ol]	1000 to 10000 nM	100 to 1000 nM							
< 100 nM	< 100 nM	< 100 nM		100 to 1000 nM	100 to 1000 nM	Cc1cn2nc(-c3cc4cn(C5CCNCC5)nc4c(O)n3)cc(C)c2n1 [Compound 139, 5-(2,8-dimethylimidazo[1,2-b]pyridazin-6-yl)-2-(4-piperidyl)-6H-pyrazolo[3,4-c]pyridin-7-one]	< 100 nM	100 to 1000 nM							
> 10000 nM	> 10000 nM	1000 to 10000 nM		> 10000 nM	> 10000 nM	Cn1cc2cc(-c3cc(Cl)c4nn(C5CCNCC5)cc4n3)c(O)cc2n1 [Compound 141]	> 10000 nM	> 10000 nM							
< 100 nM	< 100 nM	< 100 nM		100 to 1000 nM	100 to 1000 nM	Cc1cn2nc(-c3cc(F)c4nn(C5CCN(C)CC5)cc4c3)cc(C)c2n1 [Compound 150, 6-[7-fluoro-2-(1-methyl-4-piperidyl)indazol-5-yl]-2,8-dimethyl-imidazo[1,2-b]pyridazine]	< 100 nM	100 to 1000 nM							
						Cc1cn2nc(-c3cc(F)c4nn(C5CCN(C6CCC6)CC5)cc4c3)cc(C)c2n1 [Compound 151, 6-[2-(1-cyclobutyl-4-piperidyl)-7-fluoro-indazol-5-yl]-2,8-dimethyl-imidazo [1,2-b] pyridazine]			< 100 nM	< 100 nM	< 100 nM	< 100 nM	100 to 1000 nM	< 100 nM	< 100 nM
< 100 nM	< 100 nM	< 100 nM		100 to 1000 nM	100 to 1000 nM	Cc1cn2nc(-c3cc(F)c4nn(C5CCN(CCF)CC5)cc4c3)cc(C)c2n1 [Compound 152]	100 to 1000 nM	100 to 1000 nM							
> 10000 nM	> 10000 nM	> 10000 nM		1000 to 10000 nM	1000 to 10000 nM	Cc1cn2nc(-c3cc4cn(C5CCNCC5)nc4c(OCc4ccccc4)n3)cc(C)c2n1 [Compound 153, 6-[7-benzyloxy-2-(4-piperidyl)pyrazolo [3,4-c]pyridin-5-yl]-2,8-dimethyl-imidazo[1,2-b]pyridazine]	1000 to 10000 nM	> 10000 nM							

Reference: patent US20250082633A1, “COMPOUNDS AND METHODS FOR MODULATING SPLICING” (REMIX THERAPEUTICS INC., priority 2021, published 2025)
